Structures are written as SMILES. Counter-ions that a name gives are not always drawn.

In one experiment the test system is hPSC-SCs.
Settings: not given
Turning to `C[C@]12N[C@H](Cc3ccccc31)c1ccccc12` [Dizocilpine maleate], the z.score.t was −0.1538.
The compound `COc1c2c(nc3ccccc13)OC(C(C)(O)CO)C2` (centres unmarked) [Dubinidine] gave a z.score.t of 0.6554.
The compound `CC[N+](C)(C)c1cccc(O)c1` [Edrophonium chloride] had a z.score.t of 0.7913.
`C[C@]12CC[C@H](O)C[C@@H]1CC[C@@H]1[C@@H]2CC[C@]2(C)C(=O)CC[C@@H]12` [Epiandrosterone] came in with a z.score.t of 1.457.
Compound `C[C@]12C[C@H]3S[C@H]3C[C@@H]1CC[C@@H]1[C@@H]2CC[C@]2(C)[C@@H](O)CC[C@@H]12` [Epitiostanol] had a z.score.t of 0.1686.
In turn, `CC[C@]12CCCN3CCc4c(n(c5ccccc45)[C@](O)(C(=O)OC)C1)[C@@H]32` [Epivincamine] showed a z.score.t of −0.2486.
The compound `CC(C)C[C@H]1C(=O)N2CCC[C@H]2[C@]2(O)O[C@](NC(=O)[C@@H]3C=C4c5cccc6[nH]cc(c56)C[C@H]4N(C)C3)(C(C)C)C(=O)N12` [Ergocryptine-alpha] returned a z.score.t of 0.495.
In turn, `O=c1ccc2cc(O[C@@H]3O[C@H](CO)[C@@H](O)[C@H](O)[C@H]3O)c(O)cc2o1` [Esculin Hydrate] had a z.score.t of 1.053.
`CNC(=O)Oc1ccc2c(c1)[C@]1(C)CCN(C)[C@@H]1N2C.CNC(=O)Oc1ccc2c(c1)[C@]1(C)CCN(C)[C@@H]1N2C.O=S(=O)(O)O` [Eserine sulfate, physostigmine sulfate] came in with a z.score.t of −0.3526.

The same experiment, now with this note: HTS viability of hPSC-SCs in the presence of 30 mM glucose; Prestwick library; Table S4.
Take `CC[C@H]1OC(=O)[C@H](C)[C@@H](O[C@H]2C[C@@](C)(OC)[C@@H](O)[C@H](C)O2)[C@H](C)[C@@H](O[C@@H]2O[C@H](C)C[C@H](N(C)C)[C@H]2O)[C@](C)(O)C[C@@H](C)[C@@H]2N[C@@H](COCCOC)O[C@H]([C@H]2C)[C@]1(C)O` [Dirithromycin]: the z.score.t worked out at 0.3231.
Consider `CC(C)N(CCC(C(N)=O)(c1ccccc1)c1ccccn1)C(C)C` (centres unmarked) [Disopyramide], for which the z.score.t was 0.4205.
In the case of `CCN(CC)C(=S)SSC(=S)N(CC)CC` [Disulfiram], the z.score.t was −1.291.
Regarding `CC(CCc1ccc(O)cc1)NCCc1ccc(O)c(O)c1` (centres unmarked) [Dobutamine hydrochloride], the z.score.t is on record as −0.3731.
On to `O=c1[nH]c2ccccc2n1CCCN1CCC(n2c(=O)[nH]c3cc(Cl)ccc32)CC1` [Domperidone], for which the z.score.t was 0.006455.
Consider `CCN[C@H]1C[C@H](C)S(=O)(=O)c2sc(S(N)(=O)=O)cc21` [Dorzolamide hydrochloride], for which the z.score.t is on record as −0.7873.
On the same count and under the same terms, the figure for `CN(C)CC/C=C1\c2ccccc2CSc2ccccc21` [Dosulepin hydrochloride] is −0.8478.
Consider `COc1cc2nc(N3CCN(C(=O)C4COc5ccccc5O4)CC3)nc(N)c2cc1OC` (centres unmarked) [Doxazosin mesylate], for which the z.score.t is −0.8683.
With `CN(C)CCC=C1c2ccccc2COc2ccccc21` [Doxepin hydrochloride], the z.score.t was 0.1594.
In the case of `COc1cccc2c1C(=O)c1c(O)c3c(c(O)c1C2=O)C[C@@](O)(C(=O)CO)C[C@@H]3O[C@H]1C[C@H](N)[C@H](O)[C@H](C)O1` [Doxorubicin hydrochloride], the z.score.t was −1.209.
Same read-out and setting: then `CCO.C[C@H]1c2cccc(O)c2C(O)=C2C(=O)[C@]3(O)C(O)=C(C(N)=O)C(=O)[C@@H](N(C)C)[C@@H]3[C@@H](O)[C@@H]21.C[C@H]1c2cccc(O)c2C(O)=C2C(=O)[C@]3(O)C(O)=C(C(N)=O)C(=O)[C@@H](N(C)C)[C@@H]3[C@@H](O)[C@@H]21.Cl.Cl.O` [Doxycycline hyclate], with 1.148.
Same read-out and setting: the figure for `CN(C)CCOC(C)(c1ccccc1)c1ccccn1` (centres unmarked) [Doxylamine succinate] is −0.1538; for `CCN(CC)CCOC(=O)C(c1ccccc1)C1CCCCC1` (centres unmarked) [Drofenine hydrochloride] it is −0.1913.
`O=C(CCCN1CC=C(n2c(=O)[nH]c3ccccc32)CC1)c1ccc(F)cc1` [Droperidol]: the z.score.t is listed as 1.197.
Same read-out and setting: the figure for `CCCCOc1ccc(C(=O)CCN2CCCCC2)cc1` [Dyclonine hydrochloride] is −0.6492; for `CC(=O)[C@H]1CC[C@H]2[C@@H]3C=CC4=CC(=O)CC[C@@]4(C)[C@@H]3CC[C@]12C` [Dydrogesterone] it is 0.81; for `O=c1c2ccccc2[se]n1-c1ccccc1` [Ebselen] it is 0.3459.
On to `Clc1ccc(COC(Cn2ccnc2)c2ccc(Cl)cc2Cl)cc1` (centres unmarked) [Econazole nitrate], for which the z.score.t is −1.834.
Still for that read-out and setting: then `Cc1c2ccncc2c(C)c2c1[nH]c1ccccc12` [Ellipticine], with −1.949; and `CC[C@H]1CN2CCc3cc(OC)c(OC)cc3[C@@H]2C[C@@H]1C[C@H]1NCCc2cc(OC)c(OC)cc21` [Emetine dihydrochloride], with −1.991.
For the compound `CCOC(=O)[C@H](CCc1ccccc1)N[C@@H](C)C(=O)N1CCC[C@H]1C(=O)O` [Enalapril maleate], the z.score.t is −0.8991.
Turning to `C=CCOC(Cn1ccnc1)c1ccc(Cl)cc1Cl` (centres unmarked) [Enilconazole], the z.score.t is listed as −1.535.
Same read-out and setting: the figure for `Oc1cc(O)c2c(c1)O[C@H](c1ccc(O)c(O)c1)[C@H](O)C2` [Epicatechin-(−)] is −0.411.
Take `COc1cc(C)nc(-n2nc(C)cc2OC)n1` [Epirizole]: the z.score.t is on record as 1.191.
As to `C[C@]12CC[C@H]3C(=CCc4cc(O)ccc43)[C@@H]1CCC2=O` [Equilin], the z.score.t came to 0.9352.
With `CC[C@H]1OC(=O)[C@H](C)[C@@H](O[C@H]2C[C@@](C)(OC)[C@@H](O)[C@H](C)O2)[C@H](C)[C@@H](O[C@@H]2O[C@H](C)C[C@H](N(C)C)[C@H]2O)[C@](C)(O)C[C@@H](C)C(=O)[C@H](C)[C@@H](O)[C@]1(C)O` [Erythromycin], the z.score.t was −0.09426.
In the case of `O=c1ccc2cc(O)c(O)cc2o1` [Esculetin], the z.score.t is recorded as −0.7376.
Still for that read-out and setting: the figure for `C[C@]12CC[C@@H]3c4ccc(O)cc4CC[C@H]3[C@@H]1CC[C@@H]2O` [Estradiol-17 beta] is −0.7953; for `C[C@]12CC[C@@H]3c4ccc(O)cc4CC[C@H]3[C@@H]1C[C@@H](O)[C@@H]2O` [Estriol] it is 0.7296; for `C[C@]12CC[C@@H]3c4ccc(O)cc4CC[C@H]3[C@@H]1CCC2=O` [Estrone] it is 1.784.
As for `C[C@]12CC[C@@H]3c4ccc(OS(=O)(=O)O)cc4CC[C@H]3[C@@H]1CCC2=O` [Estropipate], the z.score.t was determined as 1.178.
For the compound `O=C(Cn1ccnc1[N+](=O)[O-])NCCO` [Etanidazole], the z.score.t stood at 0.1469.
Take `C=C(CC)C(=O)c1ccc(OCC(=O)O)c(Cl)c1Cl` [Ethacrynic acid]: the z.score.t was 1.53.
Regarding `CC[C@@H](CO)NCCN[C@@H](CC)CO` [Ethambutol dihydrochloride], the z.score.t is listed as 1.13.
Take `CCN(CC)C(=O)c1ccc(O)c(OC)c1` [Ethamivan]: the z.score.t is 1.211.
In the case of `O=S(=O)(O)c1cc(O)ccc1O` [Ethamsylate], the z.score.t is −0.4549.
As to `CCOc1ccc(Cc2nccc3cc(OCC)c(OCC)cc23)cc1OCC` [Ethaverine hydrochloride], the z.score.t was found to be 0.453.
Regarding `CCc1cc(C(N)=S)ccn1` [Ethionamide], the z.score.t was determined as 0.3024.

Values taken from patent US20260053861A1, “CELL COMPOSITIONS AND METHODS OF USING THE SAME” (THE REGENTS OF THE UNIVERSITY OF CALIFORNIA, priority 2022, published 2026).
